Measured values reported in US7495104B2, “Quinoline or quinazoline derivatives inhibiting auto-phosphorylation of fibroblast growth factor receptors” (Kirin Beer Kabushiki Kaisha, priority 2001, dated 2009).
Structures can show the parent of a compound that is named as a salt.

Assays:
[1] = system: Human gastric cancer cells (OCUM-2MD3); assay: Tumor growth inhibitory activity against human gastric cancer cells (OCUM-2MD3) in nude mice (Pharmacological Test Example 2); format: in vivo; conditions: unit dose 10 mg/kg, oral, twice a day for 5 days
Experimental: (§1) Human gastric cancer cells (OCUM-2MD3) (kindly provided by Dr. Kosei Hirakawa, Osaka City University) were transplanted into nude mice. […] The test compound suspended in 0.5% methylcellulose was orally administered every day twice a day for 5 days (except for the first day on which the suspension was administered once a day).
(§2) Only 0.5% methylcellulose was administered to the control group in the manner as in the test groups. The tumor growth inhibition rate (TGIR) was calculated as follows: The tumor growth inhibition rate (TGIR)=(1−TX/CX)×100 wherein CX represents the volume of tumor at day X for the control group when the tumor volume at the day of the start of the administration was presumed to be 1; and TX represents the volume of tumor for test compound administration groups.

Bek = Bek (Homo sapiens, UniProt P21802); assay: Inhibitory activity against Bek-autophosphorylation using ELISA method in OCUM-2MD3 cells; format: cell-based; conditions: 1 hr with compound, read-out: IC50 (concentration necessary for inhibiting 50% of Bek-phosphorylation)
How it was run: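 Sandwich ELISA (anti-phosphotyrosine capture, anti-Bek detection, peroxidase, 450 nm) measured Bek autophosphorylation in OCUM-2MD3 lysates after 1 hr compound treatment at 37° C in 0.1% serum medium. IC50 derived by scaling between no-drug (100%) and excess positive control at 1000 nM (0%).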

[2] = system: Human gastric cancer cells (OCUM-2MD3); assay: Tumor growth inhibitory activity against human gastric cancer cells (OCUM-2MD3) in nude mice (Pharmacological Test Example 3); format: in vivo; conditions: Mus musculus, read-out: TGIR (tumor growth inhibition rate); for inhibition in vivo at 25 mg: 600 h, dose per day 25 mg × 1, oral
Experimental: as §1, §2
Tumor growth inhibitory activity was measured in the same manner as in Pharmacological Test Example 2, except that oral administration was carried out once a day or twice a day (except for the first day on which the suspension was administered once a day).

Bek, sequence (P21802 431-767 limits assumed): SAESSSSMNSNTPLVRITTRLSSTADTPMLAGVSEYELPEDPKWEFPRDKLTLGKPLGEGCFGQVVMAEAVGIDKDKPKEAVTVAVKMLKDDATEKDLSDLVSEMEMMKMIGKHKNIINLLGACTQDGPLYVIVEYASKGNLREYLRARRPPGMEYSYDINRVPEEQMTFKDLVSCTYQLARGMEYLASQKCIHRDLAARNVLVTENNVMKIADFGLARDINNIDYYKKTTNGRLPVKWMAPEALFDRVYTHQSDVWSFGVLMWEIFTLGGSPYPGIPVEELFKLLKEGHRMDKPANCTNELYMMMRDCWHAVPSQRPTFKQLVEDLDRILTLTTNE

IC50 (Bek) [nM] | SMILES | TGIR (tumor growth inhibition rate) [1] [%] | inhibition in vivo at 25 mg [2] [%] | inhibition in vivo at 30 mg ([2]; 720 h, dose per day 30 mg × 2, oral) [%]
18.4 | COc1cc2c(Oc3ccc(NC(=O)NCCC(C)(C)C)cc3)ccnc2cc1OCCN1CCCCC1 [Compound 91, 1-(3,3-Dimethyl-butyl)-3-{4-[6-methoxy-7-(2-piperidin-1-yl-ethoxy)-quinolin-4-yloxy]-phenyl}-urea hydrochloride] |  | 28 | 
< 10 | COc1cc2c(Oc3ccc(NC(=O)NCCC(C)(C)C)c(F)c3)ccnc2cc1OCCN1CC(C)OC(C)C1 (centres unmarked) [Compound 97, 1-(3,3-Dimethyl-butyl)-3-(4-{7-[2-(2,6-dimethyl-morpholin-4-yl)-ethoxy]-6-methoxy-quinolin-4-yloxy}-2-fluoro-phenyl)-urea] |  | 48 | 
< 10 | COc1cc2c(Oc3ccc(NC(=O)NCCC(C)(C)C)cc3F)ccnc2cc1OCCN1CCOCC1 [Compound 98, 1-(3,3-Dimethyl-butyl)-3-{3-fluoro-4-[6-methoxy-7-(2-morpholin-4-yl-ethoxy)-quinolin-4-yloxy]-phenyl}-urea] |  | 48 | 
28.6 | COc1cc2c(Oc3ccc(NC(=O)NCCC(C)(C)C)c(F)c3)ccnc2cc1OCCN1CCCCC1 [Compound 99, 1-(3,3-Dimethyl-butyl)-3-{2-fluoro-4-[6-methoxy-7-(2-piperidin-1-yl-ethoxy)-quinolin-4-yloxy]-phenyl}-urea] |  | 63 | 

The next lines start with the molecule.

SMILES | IC50 (Bek) [nM] | TGIR (tumor growth inhibition rate) [1] [%] | inhibition in vivo at 25 mg [2] [%] | inhibition in vivo at 30 mg ([2]; 720 h, dose per day 30 mg × 2, oral) [%]
COc1cc2c(Oc3ccc(Nc4ccc(C(C)(C)C)cc4)cc3)ccnc2cc1OCCN1CCOCC1 [Compound 37 (hydrochloride)] |  | 35 |  | 
COc1cc2c(Oc3ccc(Nc4ccc(C(C)(C)C)cc4)cc3)ccnc2cc1OCC(O)CN1CCOCC1 (centres unmarked) [Compound 59 (hydrochloride)] |  | 16 |  | 
COc1cc2c(Oc3ccc(NC(=O)NCCC(C)(C)C)c(Cl)c3)ccnc2cc1OCCN1CCCCC1 [Compound 100, 1-{2-Chloro-4-[6-methoxy-7-(2-piperidin-1-yl-ethoxy)-quinolin-4-yloxy]-phenyl}-3-(3,3-dimethyl-butyl)-urea] | 175 |  | 43 | 
COc1cc2c(Oc3ccc(NC(=O)NCCC(C)(C)C)c(Cl)c3)ccnc2cc1OCCN1CCOCC1 [Compound 114, 1-{2-Chloro-4-[6-methoxy-7-(2-morpholin-4-yl-ethoxy)-quinolin-4-yloxy]-phenyl}-3-(3,3-dimethyl-butyl)-urea] | 20.1 |  |  | 48
